Test results as given in patent US10898504B2, “Substituted nucleoside analogues for use as PRMT5 inhibitors” (Janssen Pharmaceutica NV, priority 2016, dated 2021).

How the values were obtained:
MCL xenograft models = conditions: multiple MCL xenograft models; Chan-Penebre et al., Nat Chem Biol 2015; cited from earlier work
PRMT5 = PRMT5 (Homo sapiens, UniProt O14744); conditions: Chan-Penebre et al., Nat Chem Biol 2015; cited from earlier work
PRMT5-MEP50 enzyme = molecular target: T1, PRMT5-MEP50 enzyme (Homo sapiens, UniProt O14744); test: In vitro assay (Assay 1): PRMT5-MEP50 high throughput mass spectrometer assay, inhibition of SAH formation; type: biochemical; conditions: individual measurements shown; for IC50: read-out: pIC50 Assay 1 (converted)
T1 construct: One virus expresses full length human PRMT5 with Flag-tag at N-terminus
Procedure, shortened: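 Flag-PRMT5/His-MEP50 full-length human complex (Sf9-expressed), 10 nM, with 1 μM SAM and 0.3 μM histone H2A in 20 mM Tris-HCl pH 8.5, 50 mM NaCl, 5 mM MgCl2, 1 mM DTT; 60 min at 30 °C, quenched with 1% formic acid. SAH quantified by RapidFire MS; IC50 from 11-point 1:2 series fitted to four-parameter Hill equation.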

A549 cells = test: PD assay (Assay 2): inhibition of nuclear symmetric Arginine dimethylation (SYM10 immunohistochemistry) in A549 cells; type: cell-based; conditions: individual measurements shown; for IC50: Homo sapiens, A549, PD assay in A549 cells, read-out: pIC50 Assay 2 (converted); for pIC50 Assay 2: PD assay in A549 cells
Procedure, shortened: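 A549 cells dosed with a nine-point series (0.2% DMSO) for 48 h at 37° C, then fixed and immunostained with SYM10 anti-symmetric-dimethylarginine antibody, plus Hoechst and CellMask counterstains for high-content imaging. Nuclear signal normalized between DMSO and 10 μM reference-compound controls to derive IC50/pIC50.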

T1 sequence (O14744 whole entry): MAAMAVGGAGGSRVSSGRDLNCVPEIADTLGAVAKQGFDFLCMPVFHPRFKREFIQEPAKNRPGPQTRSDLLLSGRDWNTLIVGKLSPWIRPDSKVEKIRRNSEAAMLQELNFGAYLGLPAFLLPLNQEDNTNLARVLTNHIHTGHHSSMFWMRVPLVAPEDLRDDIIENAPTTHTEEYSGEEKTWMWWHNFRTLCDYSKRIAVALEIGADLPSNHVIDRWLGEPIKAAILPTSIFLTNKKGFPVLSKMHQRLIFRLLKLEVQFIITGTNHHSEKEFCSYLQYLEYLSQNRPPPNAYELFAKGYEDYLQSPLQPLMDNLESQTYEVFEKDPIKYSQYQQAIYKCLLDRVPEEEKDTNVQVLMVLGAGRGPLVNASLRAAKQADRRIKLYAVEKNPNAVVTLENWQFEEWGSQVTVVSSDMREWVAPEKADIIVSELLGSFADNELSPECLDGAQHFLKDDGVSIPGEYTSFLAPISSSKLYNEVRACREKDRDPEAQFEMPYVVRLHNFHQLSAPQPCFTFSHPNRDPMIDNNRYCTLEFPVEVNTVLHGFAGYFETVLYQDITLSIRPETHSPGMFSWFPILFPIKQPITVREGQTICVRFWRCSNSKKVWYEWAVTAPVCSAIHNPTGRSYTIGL
T1 sequence (Q9BQA1 whole entry partner): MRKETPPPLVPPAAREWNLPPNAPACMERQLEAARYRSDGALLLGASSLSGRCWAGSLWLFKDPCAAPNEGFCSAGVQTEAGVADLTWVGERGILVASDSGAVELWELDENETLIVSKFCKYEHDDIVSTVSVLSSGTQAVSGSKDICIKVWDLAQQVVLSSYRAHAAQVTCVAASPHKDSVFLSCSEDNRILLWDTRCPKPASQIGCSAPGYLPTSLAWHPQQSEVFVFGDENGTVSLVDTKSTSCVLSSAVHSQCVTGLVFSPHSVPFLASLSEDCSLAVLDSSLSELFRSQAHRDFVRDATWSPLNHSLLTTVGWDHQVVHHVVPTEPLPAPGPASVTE
Sequence of PRMT5 (O14744 whole entry, species assumed): as the sequence (O14744 whole entry) above
Sequence of PRMT5 (Q9BQA1 whole entry partner, species assumed): as the sequence (Q9BQA1 whole entry partner) above

SMILES | IC50 (PRMT5-MEP50 enzyme) | IC50 (A549 cells) | further results
O=C(NC[C@H](O)CN1CCc2ccccc2C1)c1cc(NC2COC2)ncn1 [EPZ015666] | – | – | anti-tumour activity (MCL xenograft models): anti-tumour activity; potency as PRMT5 inhibitor (PRMT5): sub-nanomolar potent
CN1CCC2(CCCN2C[C@H]2O[C@@H](n3ccc4c(Cl)ncnc43)[C@H](O)[C@@H]2O)CC1 [Compound 208] | 0.0759 µM | 0.49 µM | –
O[C@@H]1[C@H](O)[C@@H](CN2CCCC23CCNCC3)O[C@H]1n1cnc2cncnc21 [Compound 62] | 0.501 µM | > 10 µM | –
Cc1nc(CN2CCC3(CCCN3C[C@H]3O[C@@H](n4ccc5c(N)ncnc54)[C@H](O)[C@@H]3O)CC2)cs1 [Compound 176] | 1.12 µM | 6.03 µM | –
NCC1CCC(F)(F)CN1C[C@H]1O[C@@H](n2ccc3c(N)ncnc32)[C@H](O)[C@@H]1O (stereo partly drawn) [Compound 50] | 0.0447 µM | 1.51 µM | –
CN1CC2(CCCN2C[C@H]2O[C@@H](n3cnc4c(N)ncnc43)[C@H](O)[C@@H]2O)C1 [Compound 2] | 0.776 µM | > 10 µM | –
NC[C@H]1CC(F)(F)CN1C[C@H]1O[C@@H](n2ccc3c(N)ncnc32)[C@H](O)[C@@H]1O [Compound 73b] | 0.209 µM | 2.45 µM | –
Nc1ncnn2c([C@@H]3O[C@H](CN4CCC45CCNCC5)[C@@H](O)[C@H]3O)ccc12 [Compound 165] | 0.871 µM | > 10 µM | –
Nc1ncnc2c1ncn2[C@@H]1O[C@H](CN2CC3(CCCNC3)C2)[C@@H](O)[C@H]1O [Compound 79] | 21.4 µM | > 10 µM | –
CN1CCC2(CCCN2C[C@H]2O[C@@H](n3cnc4cncnc43)[C@H](O)[C@@H]2O)CC1 [Compound 191] | – | > 10 µM | pIC50 Assay 1 (PRMT5-MEP50 enzyme): 5.04
Nc1ncnc2c1ccn2[C@@H]1O[C@H](CN2CC(F)(F)CC23CCN(CCC2CC2)CC3)[C@@H](O)[C@H]1O [Compound 185] | 0.0251 µM | 0.589 µM | –
CN1CCC2(CCCN2C[C@H]2O[C@@H](n3ccc4c(NCc5ccc(F)cc5)ncnc43)[C@H](O)[C@@H]2O)CC1 [Compound 203] | 0.209 µM | 0.661 µM | –
Nc1ncnc2c1ccn2[C@@H]1C[C@H](C(=O)N2CCCC23CCNCC3)[C@@H](O)[C@H]1O [Compound 163] | 0.00851 µM | 0.126 µM | –
Nc1ncnc2c1ccn2[C@@H]1O[C@H](CN2CCOCC23CCNCC3)[C@@H](O)[C@H]1O [Compound 108] | 0.0257 µM | 0.204 µM | –
CN1CCC2(CCCN2C[C@H]2O[C@@H](n3ccc4c(N)nc(Cl)nc43)[C@H](O)[C@@H]2O)CC1 [Compound 65] | 0.0562 µM | 0.955 µM | –
NCC1CN(C[C@H]2O[C@@H](n3ccc4c(N)ncnc43)[C@H](O)[C@@H]2O)CCO1 (stereo partly drawn) [Compound 48] | 0.145 µM | ~2.57 µM | –
N#CCN1CCC2(CCCN2C[C@H]2O[C@@H](c3ccc4c(N)ncnn34)[C@H](O)[C@@H]2O)CC1 [Compound 140] | 0.295 µM | ~3.02 µM | –

SMILES | IC50 (PRMT5-MEP50 enzyme) | IC50 (A549 cells) | further results
Nc1ncnc2c1c(F)cn2[C@@H]1O[C@H](CN2CCCC23CCNCC3)[C@@H](O)[C@H]1O [Compound 24] | 0.0117 µM | ~0.0676 µM | –
Nc1ncnc2c1ccn2[C@@H]1O[C@H](CN2CCOCC23CCNC3)[C@@H](O)[C@H]1O (single isomer, unassigned) [Compound 111] | 0.174 µM | – | pIC50 Assay 2 (A549 cells): ~5.26
CN1CC2(CCCN(C[C@H]3O[C@@H](n4cnc5c(N)ncnc54)[C@H](O)[C@@H]3O)C2)C1 [Compound 8] | 0.155 µM | 1.51 µM | –
Nc1ncnc2c1ccn2[C@@H]1O[C@H](CN2CCCC3(CCNCC3)C2)[C@@H](O)[C@H]1O [Compound 114] | 0.0339 µM | ~1.07 µM | –
Cc1nc(N)c2ccn([C@@H]3O[C@H](CN4CCCC45CCNCC5)[C@@H](O)[C@H]3O)c2n1 [Compound 28] | 0.0263 µM | 1.15 µM | –
NCC1CCCN1C[C@H]1O[C@@H](n2ccc3c(N)ncnc32)[C@H](O)[C@@H]1O (stereo partly drawn) [Compound 60] | 0.0288 µM | 1.15 µM | –
CC(C)C(=O)O[C@@H]1[C@@H](CN2CC(F)(F)CC23CCN(C)CC3)C[C@@H](n2ccc3c(N)ncnc32)[C@@H]1OC(=O)C(C)C [Compound 106] | > 10 µM | 19.5 µM | –
Nc1ncnc2c1ccn2[C@@H]1C[C@H](CN2CCCC23CCNCC3)[C@@H](O)[C@H]1O [Compound 124] | 0.0275 µM | 0.447 µM | –
N#CCN1CCC2(CC1)CC(F)(F)CN2C[C@H]1O[C@@H](c2ccc3c(N)ncnn23)[C@H](O)[C@@H]1O [Compound 144] | 0.447 µM | ~0.933 µM | –
Nc1ncnc2c1ccn2[C@@H]1O[C@H](CN2CCCC23CCN(CCC(F)(F)F)CC3)[C@@H](O)[C@H]1O [Compound 169] | 0.275 µM | 0.603 µM | –
CC(C)C(=O)O[C@H]1[C@@H](O)[C@H](n2ccc3c(N)ncnc32)O[C@@H]1CN1CCCC12CCN(C)CC2 [Compound 96] | 0.631 µM | 0.0204 µM | –
CN1CCC2(CC1)CCN2C[C@H]1O[C@@H](n2cnc3c(N)ncnc32)[C@H](O)[C@@H]1O [Compound 9] | 0.776 µM | > 10 µM | –
Nc1ncnc2c1ccn2[C@@H]1O[C@H](CN2CCCC23CCCNC3)[C@@H](O)[C@H]1O (single isomer, unassigned) [Compound 119] | 0.155 µM | – | pIC50 Assay 2 (A549 cells): ~5.97
NCC[C@@H]1COCCN1C[C@H]1O[C@@H](c2ccc3c(N)ncnn23)[C@H](O)[C@@H]1O [Compound 134] | 0.2 µM | 8.91 µM | –
CN1CCC2(CCN(C[C@H]3O[C@@H](n4cnc5c(N)ncnc54)[C@H](O)[C@@H]3O)C2)C1 (stereo partly drawn) [Compound 14] | 0.977 µM | > 10 µM | –
Nc1ncnc2c1ccn2[C@@H]1O[C@H](CN2CCCC23CCN(CC(F)(F)F)CC3)[C@@H](O)[C@H]1O [Compound 202] | 2 µM | ~4.68 µM | –
